From patent publication US20260327246A1, “FUSED RING KRAS INHIBITORS FOR TREATING DISEASE” (BLOSSOMHILL THERAPEUTICS, INC., priority 2023, published 2026)

What was measured:
[1] = system: SW620 (KRAS G12V); assay: Cell Proliferation Assay (CellTiter-Glo 2.0), SW620; type: cell-based; conditions: Homo sapiens, SW-620; SW620 (KRAS G12V) cells; 72 hours at 37° C., 5% CO2; read-out: Anti-proliferation IC50, SW620 (KRAS G12V)
Procedure: (§1) Two thousand KRAS mutant cells per well are seeded in 384-well white plate and then treated with indicated compounds for 72 hours at 37° C. and 5% CO2. Cell proliferation is measured using CellTiter-Glo 2.0 luciferase-based ATP detection assay (Promega, Madison, WI) following the manufacturer's protocol. IC50 values are determined using Prism software (GraphPad Software, San Diego, CA).

[2] = system: GP2D (KRAS G12D); assay: Cell Proliferation Assay (CellTiter-Glo 2.0), GP2D; type: cell-based; conditions: GP2D (KRAS G12D) cells; 72 hours at 37° C., 5% CO2; read-out: Anti-proliferation IC50, GP2D (KRAS G12D)
Procedure: as §1

SMILES	IC50 [1]	IC50 [2]
C#Cc1c(F)ccc2cc(O)cc(-c3nc4c5c(nc(OC[C@@]67CCCN6C[C@H](F)C7)nc5c3F)N3CCOCC[C@@H]3CC4)c12 [compound 25, 5-ethynyl-6-fluoro-4-[(8aS)-4-fluoro-2-{[(2R,7aS)-2-fluorotetrahydro-1H-pyrrolizin-7a(5H)-yl]methoxy}-8,8a,9,10,12,13-hexahydro-7H-11-oxa-1,3,6,13a-tetraazanaphtho[1,8-ab]heptalen-5-yl]naphthalen-2-ol]	638 nM	276 nM
C#Cc1c(F)ccc2cc(O)cc(-c3nc4c5c(nc(OC[C@@]67CCCN6C[C@H](F)C7)nc5c3F)N3CCOCC[C@H]3CC4)c12 [compound 5, 5-ethynyl-6-fluoro-4-[(8aR)-4-fluoro-2-{[(2R,7aS)-2-fluorotetrahydro-1H-pyrrolizin-7a(5H)-yl]methoxy}-8,8a,9,10,12,13-hexahydro-7H-11-oxa-1,3,6,13a-tetraazanaphtho[1,8-ab]heptalen-5-yl]naphthalen-2-ol]	20 nM	4.2 nM
CCc1c(F)ccc2cc(O)cc(-c3nc4c5c(nc(OC[C@@]67CCCN6C[C@H](F)C7)nc5c3F)N3CCCOC[C@H]3CC4)c12 [compound 3, 5-ethyl-6-fluoro-4-[(8aR)-4-fluoro-2-{[(2R,7aS)-2-fluorotetrahydro-1H-pyrrolizin-7a(5H)-yl]methoxy}-7,8,8a,9,12,13-hexahydro-11H-10-oxa-1,3,6,13a-tetraazanaphtho[1,8-ab]heptalen-5-yl]naphthalen-2-ol]	11 nM	6.3 nM
C#Cc1c(F)ccc2cc(O)cc(-c3nc4c5c(nc(OC[C@@]67CCCN6C[C@H](F)C7)nc5c3F)N3CCCCCC3CC4)c12 (some centres unmarked) [compound 22]	248 nM	32 nM
